The test system of experiment [1] is Rattus norvegicus. As to the kind of experiment: Tested for inhibition of Tumor necrosis factor alpha production after intravenous dosage of 10 mg/kg to 6-8 weeks old rats. The experiment is classed as functional.
For experiment [2], the system named is Rattus norvegicus. In words: Tested for inhibition of Tumor necrosis factor alpha production after intravenous dosage of 10 mg/kg to 6-8 weeks old rats.
For experiment [3], the system named is Mus musculus. In words: Tested for inhibition of Tumor necrosis factor alpha production after intravenous dosage of 10 mg/kg to 8 weeks old mice. Format: functional.
The test system of experiment [4] is Rattus norvegicus. As to the kind of experiment: Inhibition of Tumor necrosis factor alpha production after i.v. dose of 0.01-0.1 mg/10 mL/kg in 6-8 weeks old rats. The experiment is classed as functional. The conditions noted are these: for ED50: Rattus norvegicus, iv, read-out: ID50 (the source's name).
In experiment [5] the test system is Rattus norvegicus. In words: Tested for inhibition of Tumor necrosis factor alpha production (po) in rats. Format: functional. The conditions noted are these: read-out: ID50 (the source's name).
The subject of experiment [6] is Mus musculus. In words: Tested for inhibition of Tumor necrosis factor alpha production in 8 weeks old mice after intravenous dosage of 0.01-0.1 mg/10 mL/kg. Format: functional. As to conditions: for ED50: Mus musculus, iv, read-out: ID50 (the source's name).
Experiment [7] relates to Mus musculus. In words: Tested for inhibition of Tumor necrosis factor alpha production after intravenous dosage of 30 mg/kg to 8 weeks old mice. Format: functional.
Experiment [8] concerns Rattus norvegicus. In words: Tested for inhibition of Tumor necrosis factor alpha production after intravenous dosage of 30 mg/kg to 6-8 weeks old rats pretreated with saline. Format: functional.

With `CCCCCCCC(=O)NC(COP(=O)(O)O)c1ccc(C)cc1` (stereo not given), the inhibition in vivo – broadly, the change of the read-out against control, counted positive when it falls – at 10 mg/kg in the experiment with Rattus norvegicus [1] came to 44%.

`CCCCCCCC(=O)NC(COP(=O)(O)O)c1ccccc1OC` (stereo not given): in the experiment with Rattus norvegicus [2], the inhibition in vivo at 10 mg/kg was found to be 55%.

For the compound `O=C(CCCCc1ccccc1)N[C@@H](COP(=O)(O)O)c1ccccc1`, in the experiment on Mus musculus [3], the inhibition in vivo at 10 mg/kg stood at 27%.

Take `CCCCCCCC(=O)NC(COP(=O)(O)O)c1ccc(OC)cc1` (stereo not given): in the experiment on Rattus norvegicus [1], the inhibition in vivo at 10 mg/kg was determined as 34%.

In the case of `CCCCCCCC(=O)N[C@@H](COP(=O)([O-])[O-])c1ccccc1.[Na+].[Na+]`, the ED50 worked out at 3 mg/kg in the experiment on Rattus norvegicus [4], 103 mg/kg with Rattus norvegicus [5] and 0.8 mg/kg in the experiment on Mus musculus [6].

With `O=C(N[C@@H](COP(=O)([O-])[O-])c1ccccc1)c1ccccc1.[Na+].[Na+]`, the ED50 in the experiment on Mus musculus [3] (read-out: ID50 (the source's name)) came out at 32 mg/kg.

Regarding `CCCCCC(=O)N[C@@H](COP(=O)([O-])[O-])c1ccccc1.[Na+].[Na+]`, the ED50 came to 50 mg/kg in the experiment with Rattus norvegicus [4] and 30 mg/kg in the experiment with Mus musculus [6].

On to `CCCCCCCC(=O)NC(COP(=O)(O)O)c1cccc(OC2CCCC2)c1` (stereo not given), for which the inhibition in vivo at 10 mg/kg with Rattus norvegicus [1] came to 7%.

`CCCCCCC(C)C(=O)N[C@@H](COP(=O)([O-])[O-])c1ccccc1.[Na+].[Na+]` (stereo in doubt) had an ID50 in the experiment on Rattus norvegicus [4] of 8 mg/kg. Besides, the ED50 in the experiment with Mus musculus [6] came out at 4.2 mg/kg.

Turning to `CCCCCCCC(=O)NC(COP(=O)([O-])[O-])c1cccc(Cl)c1.[Na+].[Na+]` (stereo not given), the ED50 in the experiment with Rattus norvegicus [4] was 5.2 mg/kg.

On to `CCCCCCCC(=O)NC(COP(=O)([O-])[O-])c1cccc(OCC)c1.[Na+].[Na+]` (stereo not given), for which the ED50 with Rattus norvegicus [4] worked out at 0.2 mg/kg.

Consider `CCCC(CCC)C(=O)N[C@@H](COP(=O)(O)O)c1ccccc1`, for which the inhibition in vivo at 30 mg/kg in the experiment on Mus musculus [7] was 36%.

On to `CCCCCCOC(=O)N[C@@H](COP(=O)([O-])[O-])c1ccccc1.[Na+].[Na+]`, for which the ED50 with Rattus norvegicus [4] was 3.2 mg/kg; with Mus musculus [6] it was 1.1 mg/kg.

`CCCCCCCC(=O)NC(COP(=O)([O-])[O-])c1cccc(O)c1.[Na+].[Na+]` (stereo not given): the ED50 with Rattus norvegicus [4] turned out to be 1.4 mg/kg.

Regarding `CCCCCCNC(=O)N[C@@H](COP(=O)(O)O)c1ccccc1`, the inhibition in vivo at 10 mg/kg in the experiment with Mus musculus [3] came out at 58%.

Take `CCCCCCCC(=O)NC(COP(=O)([O-])[O-])c1cccc(SC(C)C)c1.[Na+].[Na+]` (stereo not given): the ED50 in the experiment on Rattus norvegicus [4] came out at 0.21 mg/kg.

Regarding `CCCCCCCC(=O)NC(COP(=O)([O-])[O-])c1cccc(OCC(C)C)c1.[Na+].[Na+]` (stereo not given), the ED50 in the experiment on Rattus norvegicus [4] turned out to be 33 mg/kg.

For the compound `CC(=O)N[C@@H](COP(=O)(O)O)c1ccccc1`, the inhibition in vivo at 30 mg/kg in the experiment with Rattus norvegicus [8] was 21%. The inhibition in vivo at 10 mg/kg with Mus musculus [3] stood at 28%.

For `CCCCCCCC(=O)NC(COP(=O)([O-])[O-])c1cccc(C)c1.[Na+].[Na+]` (stereo not given), the ED50 with Rattus norvegicus [4] was found to be 53 mg/kg.

As for `CCCCCCCCCCC(=O)N[C@@H](COP(=O)(O)O)c1ccccc1`, the inhibition in vivo at 10 mg/kg in the experiment with Mus musculus [3] turned out to be 50%.

In the case of `CCCCCCCC(=O)NC(COP(=O)([O-])[O-])c1cc(OC)cc(OC)c1.[Na+].[Na+]` (stereo not given), in the experiment on Rattus norvegicus [4], the ED50 amounted to 3.8 mg/kg.

Regarding `CCCCCCCC(=O)NC(COP(=O)([O-])[O-])c1cccc(OC2CCC2)c1.[Na+].[Na+]` (stereo not given), in the experiment with Rattus norvegicus [4], the ED50 stood at 0.9 mg/kg.

Consider `CCCCCCC(C)(C)C(=O)N[C@@H](COP(=O)(O)O)c1ccccc1`, for which the inhibition in vivo at 10 mg/kg in the experiment on Mus musculus [3] was 56%.

Turning to `CCCCCCCC(=O)N[C@H](COP(=O)([O-])[O-])c1ccccc1.[Na+].[Na+]`, the ED50 in the experiment on Rattus norvegicus [4] was 10 mg/kg.

Take `CCCCCCCC(=O)NC(COP(=O)(O)O)c1ccccc1Cl` (stereo not given): the inhibition in vivo at 10 mg/kg in the experiment on Rattus norvegicus [1] came to 46%.

Turning to `CCCCCCCC(=O)N[C@H](COP(=O)([O-])[O-])c1cccc(OC)c1.[Na+].[Na+]`, the ED50 with Rattus norvegicus [4] is 1.6 mg/kg.

In the case of `CCCCCCC(C)C(=O)N[C@@H](COP(=O)([O-])[O-])c1ccccc1.[Na+].[Na+]` (single isomer, unassigned; more polar), the ID50 in the experiment on Rattus norvegicus [4] stood at 1.7 mg/kg; in the experiment on Mus musculus [6] it was 2.4 mg/kg.

`CCCC(=O)N[C@@H](COP(=O)(O)O)c1ccccc1`: the inhibition in vivo at 30 mg/kg in the experiment on Rattus norvegicus [8] was 37%. Also, the inhibition in vivo at 10 mg/kg in the experiment with Mus musculus [3] is 17%.

On to `CCCCCCCC(=O)NC(COP(=O)([O-])[O-])c1cccc(SC)c1.[Na+].[Na+]` (stereo not given), for which the ED50 in the experiment on Rattus norvegicus [4] amounted to 0.56 mg/kg.

Take `CCCCCCCC(=O)NC(COP(=O)([O-])[O-])c1cccc(OC)c1.[Na+].[Na+]` (stereo not given): in the experiment with Rattus norvegicus [4], the ED50 is 0.5 mg/kg.

Turning to `CCCCCCCC(=O)NC(COP(=O)(O)O)c1ccc(Cl)cc1` (stereo not given), the inhibition in vivo at 10 mg/kg in the experiment with Rattus norvegicus [1] was -118%.

Take `CCCCCCCC(=O)NC(COP(=O)([O-])[O-])c1cccc(OCCC)c1.[Na+].[Na+]` (stereo not given): the ED50 in the experiment with Rattus norvegicus [4] was 0.7 mg/kg.

`CCCCCCC(=O)N[C@@H](COP(=O)([O-])[O-])c1ccccc1.[Na+].[Na+]`: the ED50 with Rattus norvegicus [4] came to 4.5 mg/kg; in the experiment on Mus musculus [6], 2.8 mg/kg.

As to `CCCCCCCC(=O)NC(COP(=O)([O-])[O-])c1ccccc1C.[Na+].[Na+]` (stereo not given), in the experiment on Rattus norvegicus [4], the ED50 was found to be 2 mg/kg.

In the case of `CCCCCCCC(=O)N[C@@H](COP(=O)([O-])[O-])c1cccc(OC)c1.[Na+].[Na+]`, the ED50 in the experiment on Mus musculus [6] was 0.26 mg/kg.

Turning to `CCCCCCCC(=O)NC(COP(=O)([O-])[O-])c1cccc(OC(C)C)c1.[Na+].[Na+]` (stereo not given), the ED50 with Rattus norvegicus [4] came out at 0.1 mg/kg.

These data come from ChEMBL document CHEMBL1135245, “Highly potent inhibitors of TNF-alpha production. Part 1: Discovery of chemical leads” (2002).
